Eight compounds from PubChem BioAssay (NCI) can be followed below.

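Where inhibition never reached the appropriate level, the endpoint shown equals the highest concentration tested. Otherwise, values were interpolated linearly from a five-concentration, 48-hour dose response in 96-well plates. The concentration for 50% growth inhibition is given as GI50. TGI: total growth inhibition.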

Common to all, as to test: inhibition of tumour cell growth, NCI panel, 48 h
For experiment [1], the system named is EKVX NSCLC.
Experiment [2] concerns HCC-2998 colon.
The test system of experiment [3] is LOX IMVI melanoma.
The test system of experiment [4] is NCI-H23 lung.
Experiment [5] has as its system NCI-H460 lung.
Experiment [6] relates to RXF 393 renal.
The test system of experiment [7] is SK-MEL-2 melanoma.
Experiment [8] deals with SW-620 colon.
The subject of experiment [9] is T-47D breast.
The test system of experiment [10] is U251 CNS.

Take `CN(/N=N/c1nc(OCc2ccccc2)c2[nH]cnc2n1)C(=O)N(C)/N=N/c1nc(OCc2ccccc2)c2[nH]cnc2n1`: the GI50 is 38.3 µM in experiment [1]; 19.3 µM in [2]; 37 µM in [3]; 34.7 µM in experiment [4]; 26.1 µM in [5]; 79.9 µM in experiment [6]. For the same compound, the GI50 in [7] is 65.3 µM; in [8], 71.7 µM; in experiment [9], 39.6 µM; in experiment [10], 49.9 µM. The TGI in experiment [1] was over 100 µM; in experiment [2], 81.6 µM; in [3], over 100 µM; in experiment [4], over 100 µM; in experiment [5] it was over 100 µM; in experiment [6], over 100 µM. The TGI in experiment [7], in experiment [8], in experiment [9] and in [10] was over 100 µM throughout.

In the case of `COc1cc(-c2cn(-c3ccc(Cl)cc3)c(=O)[nH]2)cc(OC)c1OC`, the GI50 in [1], in [2], in [3], in experiment [4], in [5] and in experiment [6] was over 100 µM in each case. The GI50 in experiment [7], in experiment [8], in experiment [9] and in experiment [10] was over 100 µM throughout. In addition, the TGI in [1], in experiment [2], in experiment [3], in experiment [4], in experiment [5] and in [6] was over 100 µM each time. In addition, the TGI in experiment [7], in experiment [8], in [9] and in [10] was over 100 µM each time.

On to `O=C(N/N=C/c1ccc(O)cc1O)c1ccc(Nc2ccnc(C(F)(F)F)c2)cc1`, for which the GI50 in experiment [1] is 8.91 µM; in experiment [2] it was over 75.2 µM; in [3] it was 8.31 µM; in experiment [4], over 82.1 µM; in experiment [5], over 100 µM; in experiment [6], 17.3 µM. The GI50 in experiment [7] is over 59.1 µM; in [8], over 100 µM; in experiment [9] it was 1.29 µM; in experiment [10] it was 0.248 µM. Further, the TGI in experiment [1] is over 75.1 µM; in [2], over 100 µM; in experiment [3], over 100 µM; in [4] it was over 100 µM; in experiment [5], over 100 µM; in [6] it was 64.1 µM. Besides, the TGI was over 100 µM in experiment [7], over 100 µM in experiment [8], over 100 µM in [9] and 21.2 µM in experiment [10].

As to `CNC1NC(=O)c2ccccc2N1Cc1ccc(F)cc1` (centres undefined), the TGI in experiment [1], in [2], in experiment [3], in experiment [4], in experiment [5] and in experiment [6] was over 100 µM throughout. Moreover, the TGI in experiment [7], in experiment [8], in experiment [9] and in experiment [10] was over 100 µM throughout.

In the case of `c1cncc(C(Nc2cccc3cccnc23)Nc2cccc3cccnc23)c1`, the TGI in experiment [1], in [2], in experiment [3], in experiment [4], in experiment [5] and in [6] was over 100 µM in each case. In addition, the TGI in experiment [7], in experiment [8], in experiment [9] and in experiment [10] was over 100 µM in each case.

Take `c1cncc(CNc2ccccc2-c2nnc(Nc3ccc4c(c3)OCCO4)o2)c1`: the GI50 in [1] is 0.609 µM; in [2], 0.255 µM; in [3] it was 0.183 µM; in [4], 0.226 µM; in [5], 0.148 µM; in experiment [6], 0.0343 µM. The GI50 in experiment [7] is 0.217 µM; in experiment [8] it was 0.0576 µM; in [9], 3.57 µM; in experiment [10], 0.157 µM. Also, the TGI is over 100 µM in experiment [1]; over 100 µM in experiment [3]; over 100 µM in experiment [4]; over 32.5 µM in experiment [5]; 0.251 µM in experiment [6]; over 100 µM in experiment [7]. Further, the figures for the TGI in experiment [8], in experiment [9] and in [10] were over 100 µM, 60.2 µM and over 100 µM, respectively.

On to `NC(=O)C1=C(c2ccccc2)c2ccccc2C1=O`, for which the TGI was determined as 33.3 µM in experiment [1]; 29.5 µM in experiment [2]; 21.4 µM in experiment [3]; 33.7 µM in experiment [4]; 33.4 µM in experiment [5]; 35.9 µM in [6]. Moreover, the TGI in experiment [7] stood at 39.7 µM; in experiment [8], 66.6 µM; in [9] it was 40.9 µM; in experiment [10], 35.1 µM.

As to `COc1cccc(/C=C/C(=O)c2cc3c(N)c(C(=O)Nc4cccc(Cl)c4C)sc3nc2C)c1`, the GI50 in experiment [1] was 2.61 µM; in [2], 0.971 µM; in experiment [3], 0.676 µM; in [4], 1.34 µM; in [5], 1.38 µM; in experiment [6] it was 0.573 µM. The GI50 in experiment [7] was 1.64 µM; in [8], 0.472 µM; in experiment [9], 1.52 µM; in experiment [10], 0.959 µM. Also, the TGI in experiment [1] was over 31.8 µM; in experiment [2], 1.83 µM; in [3], 1.45 µM; in experiment [4], 5.4 µM; in [5], 4.45 µM; in [6] it was 1.29 µM. For the same compound, the TGI in experiment [7] was 12.9 µM; in [8], 3.85 µM; in [9], 7.82 µM; in experiment [10], 2.05 µM.
